Results from US20060069132A1, “Azolecarboxamide herbicides” (priority 2004, published 2006).

Columns and labels:
[1] = tested on: rice; assay: Test C flooded paddy test; format: in vivo, Oryza sativa; details: for Plant response rating, Rice: 500 g ai/ha, visual rating after 12 to 14 days
Summary of the method: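 Injury scored visually against controls on a 0 (no effect) to 100 (complete control) scale, 12 to 14 days after treatment in greenhouse. Flooded paddy plants treated at 2-leaf stage; postemergence plants at 1- to 4-leaf stage, 2 to 18 cm tall.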

[2] = tested on: large crabgrass; assay: Test A pre-/postemergence herbicide test; format: in vivo, Digitaria sanguinalis
Summary of the method: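 Sandy loam soil given preemergence directed spray; plants at 2 to 10 cm, one- to two-leaf stage, sprayed to runoff postemergence, compounds in non-phytotoxic solvent with surfactant. Injury rated visually versus untreated controls after about ten greenhouse days, 0 (no effect) to 100 (complete control); dash means not tested.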

[3] = tested on: rice; assay: Test B pre-/postemergence herbicide test; format: in vivo, Oryza sativa; details: preemergence
Summary of the method: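 Visual rating, 0 (no effect) to 100 (complete control), versus untreated controls after 13–15 d in greenhouse. Pre- and postemergence applications (postemergence plants 2–18 cm, 1–4 leaves); flooded paddy arm at 2-leaf stage. Compounds in non-phytotoxic solvent plus surfactant.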

[4] = tested on: smallflower umbrella sedge; assay: Test C flooded paddy test; format: in vivo, Cyperus difformis; details: for Plant response rating, Sedge, Umbrella: 500 g ai/ha, visual rating after 12 to 14 days
[5] = tested on: bermudagrass; assay: Test C pre-/postemergence herbicide test; format: in vivo, Cynodon dactylon; details: for Bermudagrass plant response rating: 500 g ai/ha
Text: (§1) Seeds of plant species selected from bermudagrass (Cynodon dactylon (L.) Pers.), Surinam grass (Urochloa decumbens (Staph) R. D. Webster, previously named Brachiaria decumbens Stapf), cocklebur (Xanthium strumarium L.), corn (Zea mays L.), large crabgrass (Digitaria sanguinalis (L.) Scop.), woolly cupgrass (Eriochloa villosa (Thunb.) Kunth), giant foxtail (Setaria faberi Herrm.), goosegrass (Eleusine indica (L.) Gaertn.), johnsongrass (Sorghum halepense (L.) Pers.), kochia (Kochia scoparia (L.) Schrad.), lambsquarters (Chenopodium album L.), morningglory (Ipomoea coccinea L.), eastern black nightshade (Solanum ptycanthum Dunal), yellow nutsedge (Cyperus esculentus L.), pigweed (Amaranthus retroflexus L.), common ragweed (Ambrosia elatior L.), soybean (Glycine max (L.) Merr.), common (oilseed) sunflower (Helianthus annuus L.) and velvetleaf (Abutilon theophrasti Medik.) were planted and treated preemergence with test chemicals formulated in a non-phytotoxic solvent mixture which included a surfactant.
(§2) At the same time, plants selected from these crop and weed species and also winter barley (Hordeum vulgare L.), blackgrass (Alopecurus myosuroides Huds.), canarygrass (Phalaris minor Retz.), chickweed (Stellaria media (L.) Vill.), downy bromegrass (Bromus tectorum L.), green foxtail (Setaria viridis (L.) Beauv.), Italian ryegrass (Lolium multiflorum Lam.), wheat (Triticum aestivum L.), wild oat (Avenafatua L.) and windgrass (Apera spica-venti (L.) Beauv.) were treated with postemergence applications of some of the test chemicals formulated in the same manner. Plants ranged in height from 2 to 18 cm (1- to 4-leaf stage) for postemergence treatments. Plant species in the flooded paddy test consisted of rice (Oryza sativa), smallflower umbrella sedge (Cyperus difformis L.), ducksalad (Heteranthera limosa (Sw.) Willd.) and barnyardgrass (Echinochloa crus-galli (L.) Beauv.) grown to the 2-leaf stage for testing. Treated plants and controls were maintained in a greenhouse for 12 to 14 days, after which time all species were compared to controls and visually evaluated. Plant response ratings, summarized in Table C, are based on a scale of 0 to 100 where 0 is no effect and 100 is complete control. A dash (-) response means no test result.

[6] = tested on: woolly cupgrass; assay: Test C pre-/postemergence herbicide test; format: in vivo, Eriochloa villosa; details: for Cupgrass, Woolly plant response rating: 500 g ai/ha
Text: as §1, §2

[7] = tested on: velvetleaf; assay: Test C pre-/postemergence herbicide test; format: in vivo, Abutilon theophrasti; details: for Velvetleaf plant response rating: 500 g ai/ha
Text: as §1, §2

[8] = tested on: soybean; assay: Test C pre-/postemergence herbicide test; format: in vivo, Glycine max; details: for Soybean plant response rating: 500 g ai/ha
Text: as §1, §2

[9] = tested on: corn; assay: Test C pre-/postemergence herbicide test; format: in vivo, Zea mays; details: for Corn plant response rating: 500 g ai/ha
Text: as §1, §2

[10] = 62 g ai/ha, scale 0 to 100 (0 no effect, 100 complete control)
[11] = 125 g ai/ha, scale of 0 to 100, 0 is no effect, 100 is complete control
[12] = 250 g ai/ha, scale of 0 to 100, 0 is no effect, 100 is complete control
[13] = scale 0 to 100 (0 no effect, 100 complete control)
[14] = Postemergence, 500 g ai/ha, 0 to 100 scale, 0 no effect, 100 complete control
[15] = Postemergence, 2000 g ai/ha, 0 to 100 scale, 0 no effect, 100 complete control
[16] = Preemergence, 500 g ai/ha, visual rating, 0 to 100 scale (0 no effect, 100 complete control)
[17] = Preemergence, 2000 g ai/ha, 0 to 100 scale, 0 no effect, 100 complete control
[18] = 125 g ai/ha, 0 to 100 scale, 0 is no effect, 100 is complete control
[19] = Postemergence, 250 g ai/ha, scale 0 to 100, 0 no effect, 100 complete control
[20] = postemergence, 125 g ai/ha, scale 0 to 100
[21] = postemergence, 62 g ai/ha, scale 0 to 100
[22] = Preemergence, 2000 g ai/ha, visual rating, 0 to 100 scale (0 no effect, 100 complete control)
[23] = 125 g ai/ha, scale 0 to 100 (0 no effect, 100 complete control)
[24] = preemergence, 500 g ai/ha, visual injury, 0 to 100 scale (0 no effect, 100 complete control)
[25] = 125 g ai/ha, 0 = no effect, 100 = complete control
[26] = 500 g ai/ha, visual rating, 0 = no effect, 100 = complete control

CCn1nc(C(C)(C)C)cc1C(=O)Nc1cccc(C(=O)NOC)c1 [Compound 67]
Rice plant response rating [1, 10]: 0
Rice plant response rating [1, 11]: 0
Rice plant response rating [1, 12]: 0
Plant response rating, Rice [1, 13]: 30
Plant response rating, Crabgrass, Large [2, 14]: 20
Plant response rating, Crabgrass, Large [2, 15]: 20
Crabgrass, Large plant response rating [2, 16]: 15
Crabgrass, Large plant response rating [2, 17]: 55
Plant response rating, Rice [3, 18]: 0
Sedge, Umbrella plant response rating [4, 10]: 50
Sedge, Umbrella plant response rating [4, 11]: 50
Sedge, Umbrella plant response rating [4, 12]: 75
Plant response rating, Sedge, Umbrella [4, 13]: 75

C#CCOC(=O)c1cccc(NC(=O)c2cc(C(C)(C)C)nn2CC)c1 [Compound 84]
Plant response rating, Bermudagrass [5, 19]: 0
Crabgrass, Large plant response rating [2, 14]: 20
Plant response rating, Crabgrass, Large [2, 15]: 20
Crabgrass, Large plant response rating [2, 16]: 0
Crabgrass, Large plant response rating [2, 17]: 0
Cupgrass, Woolly plant response rating ([6]; Postemergence, scale 0 to 100): 0
Plant response rating, Cupgrass, Woolly [6, 19]: 0
Plant response rating, Cupgrass, Woolly [6, 20]: 0
Plant response rating, Cupgrass, Woolly [6, 21]: 0
Velvetleaf plant response rating ([7]; Postemergence, scale 0 to 100): 0
Plant response rating, Velvetleaf [7, 19]: 0
Plant response rating, Velvetleaf [7, 20]: 0
Plant response rating, Velvetleaf [7, 21]: 0
Soybean plant response rating ([8]; Postemergence, scale 0 to 100): 20
Plant response rating, Soybean [8, 19]: 20
Plant response rating, Soybean [8, 20]: 0
Plant response rating, Soybean [8, 21]: 0
Plant response rating, Rice [3, 18]: 0
Corn plant response rating ([9]; Postemergence, scale 0 to 100): 0
Plant response rating, Corn [9, 19]: 0
Plant response rating, Corn [9, 20]: 0
Plant response rating, Corn [9, 21]: 0

C=CCOC(=O)c1cccc(NC(=O)c2cc(C(C)(C)C)nn2CC)c1 [Compound 85]
Bermudagrass plant response rating ([5]; Postemergence, scale 0 to 100): 70
Plant response rating, Bermudagrass [5, 20]: 65
Plant response rating, Bermudagrass [5, 21]: 0
Crabgrass, Large plant response rating [2, 14]: 20
Plant response rating, Crabgrass, Large [2, 15]: 30
Crabgrass, Large plant response rating [2, 16]: 0
Crabgrass, Large plant response rating [2, 17]: 5
Cupgrass, Woolly plant response rating ([6]; Postemergence, scale 0 to 100): 85
Plant response rating, Cupgrass, Woolly [6, 19]: 80
Plant response rating, Cupgrass, Woolly [6, 20]: 50
Plant response rating, Cupgrass, Woolly [6, 21]: 40
Velvetleaf plant response rating ([7]; Postemergence, scale 0 to 100): 85
Plant response rating, Velvetleaf [7, 19]: 80
Plant response rating, Velvetleaf [7, 20]: 75
Plant response rating, Velvetleaf [7, 21]: 60
Soybean plant response rating ([8]; Postemergence, scale 0 to 100): 95
Plant response rating, Soybean [8, 19]: 80
Plant response rating, Soybean [8, 20]: 60
Plant response rating, Soybean [8, 21]: 55
Plant response rating, Rice [3, 18]: 0
Corn plant response rating ([9]; Postemergence, scale 0 to 100): 45
Plant response rating, Corn [9, 19]: 35
Plant response rating, Corn [9, 20]: 30
Plant response rating, Corn [9, 21]: 30

CC(=NO)c1cccc(NC(=O)c2cc(C(C)(C)C)nn2CC(F)(F)F)c1 [Compound 112]
Bermudagrass plant response rating ([5]; Postemergence, scale 0 to 100): 30
Plant response rating, Bermudagrass [5, 19]: 30
Plant response rating, Bermudagrass [5, 20]: 0
Plant response rating, Bermudagrass [5, 21]: 0
Rice plant response rating [1, 10]: 0
Rice plant response rating [1, 11]: 0
Rice plant response rating [1, 12]: 10
Plant response rating, Rice [1, 13]: 30
Crabgrass, Large plant response rating [2, 14]: 25
Plant response rating, Crabgrass, Large [2, 15]: 30
Crabgrass, Large plant response rating [2, 16]: 45
Crabgrass, Large plant response rating [2, 22]: 55
Cupgrass, Woolly plant response rating ([6]; Postemergence, scale 0 to 100): 70
Plant response rating, Cupgrass, Woolly [6, 19]: 60
Plant response rating, Cupgrass, Woolly [6, 20]: 30
Plant response rating, Cupgrass, Woolly [6, 21]: 0
Velvetleaf plant response rating ([7]; Postemergence, scale 0 to 100): 90
Plant response rating, Velvetleaf [7, 19]: 80
Plant response rating, Velvetleaf [7, 20]: 0
Plant response rating, Velvetleaf [7, 21]: 0
Soybean plant response rating ([8]; Postemergence, scale 0 to 100): 60
Plant response rating, Soybean [8, 19]: 50
Plant response rating, Soybean [8, 20]: 0
Plant response rating, Soybean [8, 21]: 0
Corn plant response rating ([9]; Postemergence, scale 0 to 100): 30
Plant response rating, Corn [9, 20]: 20
Plant response rating, Corn [9, 21]: 10
Sedge, Umbrella plant response rating [4, 10]: 0
Sedge, Umbrella plant response rating [4, 11]: 0
Sedge, Umbrella plant response rating [4, 12]: 25
Plant response rating, Sedge, Umbrella [4, 13]: 50

C=CCn1nc(C(C)(C)C)cc1C(=O)Nc1cccc(C(C)=NO)c1 [Compound 117]
Rice plant response rating [1, 10]: 0
Rice plant response rating [1, 11]: 15
Rice plant response rating [1, 12]: 45
Plant response rating, Rice [1, 13]: 65
Crabgrass, Large plant response rating [2, 14]: 40
Plant response rating, Crabgrass, Large [2, 15]: 65
Crabgrass, Large plant response rating [2, 16]: 45
Crabgrass, Large plant response rating [2, 22]: 75
Plant response rating, Rice [3, 18]: 20
Sedge, Umbrella plant response rating [4, 10]: 40
Sedge, Umbrella plant response rating [4, 11]: 55
Sedge, Umbrella plant response rating [4, 12]: 75
Plant response rating, Sedge, Umbrella [4, 13]: 80

CCn1nc(C(C)(C)C)cc1C(=O)Nc1cccc(OC(C)C)c1 [Compound 273]
Rice plant response rating ([1]; 62 g ai/ha, scale 0 to 100): 10
Rice plant response rating [1, 23]: 40
Rice plant response rating [1, 12]: 50
Plant response rating, Rice [1, 13]: 60
Crabgrass, Large plant response rating [2, 14]: 25
Plant response rating, Crabgrass, Large [2, 15]: 65
Crabgrass, Large plant response rating [2, 22]: 100
Crabgrass, Large plant response rating [2, 24]: 75
Rice plant response rating (0 to 100 scale) [3, 25]: 0
Plant response rating, Rice [3, 26]: 40
Sedge, Umbrella plant response rating ([4]; 62 g ai/ha, scale 0 to 100): 70
Sedge, Umbrella plant response rating [4, 23]: 75
Sedge, Umbrella plant response rating [4, 12]: 75
Plant response rating, Sedge, Umbrella [4, 13]: 75

CCn1nc(C(C)(C)C)cc1C(=O)Nc1cccc(C(=O)N2CC=CC2)c1 [Compound 286]
Rice plant response rating ([1]; 62 g ai/ha, scale 0 to 100): 45
Rice plant response rating [1, 23]: 55
Rice plant response rating [1, 12]: 65
Plant response rating, Rice [1, 13]: 75
Crabgrass, Large plant response rating [2, 14]: 20
Plant response rating, Crabgrass, Large [2, 15]: 25
Crabgrass, Large plant response rating [2, 22]: 70
Crabgrass, Large plant response rating [2, 24]: 15
Rice plant response rating (0 to 100 scale) [3, 25]: 30
Plant response rating, Rice [3, 26]: 80
Sedge, Umbrella plant response rating ([4]; 62 g ai/ha, scale 0 to 100): 30
Sedge, Umbrella plant response rating [4, 23]: 70
Sedge, Umbrella plant response rating [4, 12]: 90
Plant response rating, Sedge, Umbrella [4, 13]: 90

CCOC(=O)c1ccc(F)c(NC(=O)c2cc(C3(C)CC3)nn2CC)c1 [Compound 296]
Rice plant response rating ([1]; 62 g ai/ha, scale 0 to 100): 20
Rice plant response rating [1, 23]: 20
Rice plant response rating [1, 12]: 40
Plant response rating, Rice [1, 13]: 60
Plant response rating, Rice [3, 26]: 40
Sedge, Umbrella plant response rating ([4]; 62 g ai/ha, scale 0 to 100): 75
Sedge, Umbrella plant response rating [4, 23]: 75
Sedge, Umbrella plant response rating [4, 12]: 75
Plant response rating, Sedge, Umbrella [4, 13]: 85
